What follows are molecules tested on HCV genotype 1b replicon (assay: HCV replicon assay, genotype 1b). Settings: Hepatitis C virus; genotype 1b replicon cells, 24 to 72 hours incubation, luciferase activity.
Assay type: cell-based, hepatitis C virus
Procedure: The HCV replicons and NS5A inhibitory activity of the present compounds may be tested using assays known in the art. HCV inhibitors, such as those described in the Examples herein have activities in genotype 1b, 2a and 1a replicon assays of from about 1 pM to about 1 μM. The assay is performed by incubating a replicon harboring cell-line in the presence of inhibitor for a set period of time and measuring the effect of the inhibitor on HCV replicon replication either directly by quantifying replicon RNA level, or indirectly by measuring enzymatic activity of a co-encoded reporter enzyme such as luciferase or β-lactamase. By performing a series of such measurements at different inhibitor concentrations, the effective inhibitory concentration of the inhibitor (EC50 or EC90) is determined. See Jan M. Vrolijk et al., A replicons-based bioassay for the measurement of interferons in patients with chronic hepatitis C, 110 J. VIROLOGICAL METHODS 201 (2003). Such assays may also be run in an automated format for high through-put screening. See Paul Zuck et al., A cell-based β-lactamase reporter gene assay for the identification of inhibitors of hepatitis C virus replication, 334 ANALYTICAL BIOCHEMISTRY 344 (2004).
Measurement of inhibition by compounds was performed using the HCV replicon system. Several different replicons encoding different HCV genotypes or mutations were used. In addition, potency measurements were made using different formats of the replicon assay, including different ways of measurements and different plating formats. See Jan M. Vrolijk et al., A replicons-based bioassay for the measurement of interferons in patients with chronic hepatitis C, 110 J. VIROLOGICAL METHODS 201 (2003); Steven S. Carroll et al., Inhibition of Hepatitis C Virus RNA Replication by 2′-Modified Nucleoside Analogs, 278(14) J. BIOLOGICAL CHEMISTRY 11979 (2003). However, the underlying principles are common to all of these determinations, and are outlined below.
Stable neomycin phosphotransferase encoding replicon-harboring cell lines were used, so all cell lines were maintained under G418 selection prior to the assay. In some cases, the cell lines encoded a luciferase:Neor fusion and could be assayed either directly by determination of RNA copy number, or indirectly through measurement of the luciferase activity.
To initiate an assay, replicon cells were plated in the presence of a dilution series of test compound in the absence of G418. Typically, the assays were performed in a 96-well plate format for manual operation, or a 384-well plate in an automated assay. Replicon cells and compound were incubated for 24 to 72 hours. At the end of the assay, cells are washed free of media and compound and then lysed. Luciferase activity was measured using a conventional luciferase assay. EC50 determinations were calculated as a percent of a DMSO control by fitting the data to a four parameter fit function.
The activity table below provides representative data illustrating observed activity against genotype 1b.

Question: How did the EC50 turn out when `O=C(Nc1ccc(-c2cc3nc(NC(=O)[C@@H]4CCCN4C(=O)Cc4ccccc4)ccc3[nH]2)cc1)[C@@H]1CCCN1C(=O)Cc1ccccc1` [Example 2, (2S)-1-(phenylacetyl)-N-{2-[4-({[(2S)-1-(phenylacetyl)pyrrolidin-2-yl]carbonyl}amino)phenyl]-1H-pyrrolo[3,2-b]pyridin-5-yl}pyrrolidine-2-carboxamide] was run?
Answer: 9000 pM

Question: Which EC50 does the source give for `O=C(Nc1ccc(-c2[nH]c3ncc(NC(=O)[C@@H]4CCCN4C(=O)Cc4ccccc4)cc3c2Cl)cc1)[C@@H]1CCCN1C(=O)Cc1ccccc1` [Example 6, (2S)—N-{3-chloro-2-[4-({[(2S)-1-(phenylacetyl)pyrrolidin-2-yl]carbonyl}amino)phenyl]-1H-pyrrolo[2,3-b]pyridin-5-yl}-1-(phenylacetyl)pyrrolidine-2-carboxamide] here?
Answer: 200000 pM

Question: How did the EC50 turn out when `CC(C)(C)OC(=O)N[C@H](C(=O)N1CCC[C@H]1C(=O)Nc1ccc(-c2nc3cc(NC(=O)[C@@H]4CCCN4C(=O)[C@@H](NC(=O)OC(C)(C)C)c4ccccc4)ccc3[nH]2)cc1)c1ccccc1` [Example 14, tert-butyl {(1S)-2-[(2S)-2-({4-[5-({[(2S)-1-{(2S)-2-[(tert-butoxycarbonyl)amino]-2-phenylacetyl}pyrrolidin-2-yl]carbonyl}amino)-1H-benzimidazol-2-yl]phenyl}carbamoyl)pyrrolidin-1-yl]-2-oxo-1-phenylethyl}carbamate] was run?
Answer: 10000 pM

Question: `CC(C)(C)OC(=O)N[C@@H](C(=O)N1CCC[C@H]1C(=O)Nc1ccc(-c2nc3cc(NC(=O)[C@@H]4CCCN4C(=O)[C@H](NC(=O)OC(C)(C)C)c4ccccc4)ccc3[nH]2)cc1)c1ccccc1` [Example 15, tert-butyl {(1R)-2-[(2S)-2-({4-[5-({[(2S)-1-{(2R)-2-[(tert-butoxycarbonyl)amino]-2-phenylacetyl}pyrrolidin-2-yl]carbonyl}amino)-1H-benzimidazol-2-yl]phenyl}carbamoyl)pyrrolidin-1-yl]-2-oxo-1-phenylethyl}carbamate] was tested. Which EC50 did it give?
Answer: 45 pM

Question: For `CC(=O)Nc1ccc(-c2cc3cc(NC(=O)[C@@H]4CCCN4C(=O)[C@H](NC(=O)OC(C)(C)C)c4ccccc4)ccc3o2)cc1` [Example 19, N-{2-[4-(acetylamino)phenyl]-1-benzofuran-5-yl}-1-{(2R)-2-[(tert-butoxycarbonyl)amino]-2-phenylacetyl}-L-prolinamide], which EC50 is on record?
Answer: 25000 pM

Question: How did the EC50 turn out when `CCN(CC)[C@@H](C(=O)N1CCC[C@H]1C(=O)Nc1ccc(-c2cc3cc(NC(=O)[C@@H]4CCCN4C(=O)[C@@H](c4ccccc4)N(CC)CC)ccc3o2)cc1)c1ccccc1` [Example 26, (2S)-1-[(2R)-2-(diethylamino)-2-phenylacetyl]-N-(4-{5-[({(2S)-1-[(2R)-2-(diethylamino)-2-phenylacetyl]pyrrolidin-2-yl}carbonyl)amino]-1-benzofuran-2-yl}phenyl)pyrrolidine-2-carboxamide] was run?
Answer: 63 pM

Question: `CCN(CC)[C@@H](C(=O)N1CCC[C@H]1C(=O)Nc1ccc2oc(-c3ccc(NC(C)=O)cc3)cc2c1)c1ccccc1` [Example 30] was tested. Which EC50 did it give?
Answer: 26000 pM

Question: How did the EC50 turn out when `O=C(Nc1ccc2[nH]c(-c3cc4cc(NC(=O)[C@@H]5CCCN5C(=O)Cc5ccccc5)ccc4[nH]3)cc2c1)[C@@H]1CCCN1C(=O)Cc1ccccc1` [Example 39, (2S,2′S)—N,N′,1H,1′H-2,2′-biindole-5,5′-diylbis[1-(phenylacetyl)pyrrolidine-2-carboxamide]] was run?
Answer: 240 pM

Question: For `CC(C)(C)OC(=O)N[C@@H](C(=O)N1CCCC1C(=O)Nc1ccc2[nH]c(-c3cc4cc(NC(=O)[C@@H]5CCCN5C(=O)[C@H](NC(=O)OC(C)(C)C)c5ccccc5)ccc4[nH]3)cc2c1)c1ccccc1` (some centres unmarked) [Example 40], which EC50 is on record?
Answer: 26 pM

Question: For `CC(C)(C)OC(=O)N[C@@H](C(=O)N1CCC[C@H]1C(=O)Nc1ccc2[nH]c(-c3ccc(NC(=O)[C@@H]4CCCN4C(=O)Cc4ccccc4)cc3)cc2c1)c1ccccc1` [Example 41], which EC50 is on record?
Answer: 50 pM

Question: With `O=C(Nc1cnc(-c2cc3cc(NC(=O)[C@@H]4CCCN4C(=O)Cc4ccccc4)ccc3[nH]2)nc1)[C@@H]1CCCN1C(=O)Cc1ccccc1` [Example 42] as the molecule, how does the EC50 read?
Answer: 14000 pM

Question: `O=C(Nc1ccc(-c2cc3cc(NC(=O)[C@@H]4CCCN4C(=O)[C@@H](c4ccccc4)N4CCCC4)ccc3[nH]2)cc1)[C@@H]1CCCN1C(=O)[C@@H](c1ccccc1)N1CCCC1` [Example 45, (2S)-1-[(2R)-2-phenyl-2-(pyrrolidin-1-yl)acetyl]-N-(4-{5-[({(2S)-1-[(2R)-2-phenyl-2-(pyrrolidin-1-yl)acetyl]pyrrolidin-2-yl}carbonyl)amino]-1H-indol-2-yl}phenyl) pyrrolidine-2-carboxamide] was tested. Which EC50 did it give?
Answer: 20 pM

Question: With `O=C(Nc1ccc(-c2cc3cc(NC(=O)[C@@H]4CCCN4C(=O)C(Cc4ccccc4)c4ccccc4)ccc3[nH]2)cc1)[C@@H]1CCCN1C(=O)C(Cc1ccccc1)c1ccccc1` (some centres unmarked) [Example 49] as the molecule, how does the EC50 read?
Answer: 72 pM

Question: `CC(=O)Nc1ccc(-c2cc3cc(NC(=O)[C@@H]4CCCN4C(=O)[C@@H](c4ccccc4)N4CCCC4)ccc3[nH]2)cc1` [Example 58, N-{2-[4-(acetylamino)phenyl]-1H-indol-5-yl}-1[(2R)-2-phenyl-2-(pyrrolidin-1-yl)acetyl]-L-prolinamide] was tested. Which EC50 did it give?
Answer: 970 pM

Question: `O=C(Nc1ccc(-c2cc3cc(NC(=O)[C@@H]4CCCN4C(=O)[C@@H](c4ccccc4)N4CCCCC4)ccc3[nH]2)cc1)[C@@H]1CCCN1C(=O)[C@@H](c1ccccc1)N1CCCCC1` [Example 60, (2S)-1-[(2R)-2phenyl-2-(piperidin-1-yl)acetyl]-N-(4-{5-[({(2S)-1-[(2R)-2-phenyl-2-(piperidin-1-yl)acetyl]pyrrolidin-2-yl}carbonyl)amino]-1H-indol-2-yl}phenyl)pyrrolidine-2-carboxamide] was tested. Which EC50 did it give?
Answer: 130 pM

Question: `CCN(CC)[C@@H](C(=O)N1CCC[C@H]1C(=O)Nc1ccc(-c2cc3cc(NC(=O)[C@@H]4CCCN4C(=O)[C@@H](c4ccccc4)N(CC)CC)ccc3[nH]2)cc1)c1ccccc1` [Example 62, (2S)-1-[(2R)-2-(diethylamino)-2-phenylacetyl]-N-(4-{5-[({(2S)-1-[(2R)-2-(diethylamino)-2-phenylacetyl]pyrrolidin-2-yl}carbonyl)amino]-1H-indol-2-yl}phenyl)pyrrolidine-2-carboxamide] was tested. Which EC50 did it give?
Answer: 67 pM

Question: How did the EC50 turn out when `CN(C)[C@@H](C(=O)N1CCC[C@H]1C(=O)Nc1ccc2c(c1)CCc1c-2[nH]c2ccc(NC(=O)[C@@H]3CCCN3C(=O)[C@@H](c3ccccc3)N(C)C)cc12)c1ccccc1` [Example 94, (2S,2′S)-N,N′-6,11-dihydro-5H-benzo[a]carbazole-3,8-diylbis{1-[(2R)-2-(dimethylamino)-2-phenylacetyl]pyrrolidine-2-carboxamide}] was run?
Answer: 6 pM

Question: `CN(C)[C@@H](C(=O)N1CCC[C@H]1C(=O)Nc1ccc2c(c1)CCCc1c-2[nH]c2ccc(NC(=O)[C@@H]3CCCN3C(=O)[C@@H](c3ccccc3)N(C)C)cc12)c1ccccc1` [Example 95, (2S,2′S)-N,N′-5,6,7,12-tetrahydrobenzo[6,7]cyclohepta[1,2-b]indole-3,9-diylbis{1-[(2R)-2-(dimethylamino)-2-phenylacetyl]pyrrolidine-2-carboxamide}] was tested. Which EC50 did it give?
Answer: 10 pM

Question: With `CC(C)(C)CC(=O)N[C@H](C(=O)N1CCC[C@H]1C(=O)Nc1ccc2c(c1)CCc1c-2[nH]c2ccccc12)c1ccccc1` [Example 96, N-(6,11-dihydro-5H-benzo[a]carbazol-3-yl)-1-{(2S)-2-[(3,3-dimethylbutanoyl)amino]-2-phenylacetyl}-L-prolinamide] as the molecule, how does the EC50 read?
Answer: 15 pM

Same assay, conditions: genotype 1b replicon cells, 24 to 72 hours incubation, luciferase activity

Question: With `CN(C)[C@@H](C(=O)N1CCC[C@H]1C(=O)Nc1ccc2[nH]c(-c3ccc(NC(=O)[C@@H]4CCCN4C(=O)[C@H]4CCCO4)cc3)cc2c1)c1ccccc1` [Example 72] as the molecule, how does the EC50 read?
Answer: 170 pM

Reference: patent publication US11053243B2 (Merck Sharp & Dohme Corp., priority 2009, dated 2021)
